In patent US9790217B2, “Pyridinyloxy- and phenyloxy-pyrazolyl compounds” (Hoffmann-La Roche Inc., priority 2014, dated 2017):

Experiments:
[1] = tested on: rat model of chronic kidney disease; details: rat CKD model, cited from earlier work; for plasma aldosterone: FAD286 4 weeks, spironolactone 4 and 8 weeks of treatment
[2] = tested on: rats with experimental heart failure; details: cited from earlier work
human CYP11B2 = human CYP11B2 (Homo sapiens (Human), UniProt P19099); experiment: G-402 cellular enzyme assay, human CYP11B2 (aldosterone release, HTRF); format: cell-based; details: G-402 cells expressing human CYP11B2; 1 μM Deoxycorticosterone
human CYP11B2, sequence (P19099 25-503): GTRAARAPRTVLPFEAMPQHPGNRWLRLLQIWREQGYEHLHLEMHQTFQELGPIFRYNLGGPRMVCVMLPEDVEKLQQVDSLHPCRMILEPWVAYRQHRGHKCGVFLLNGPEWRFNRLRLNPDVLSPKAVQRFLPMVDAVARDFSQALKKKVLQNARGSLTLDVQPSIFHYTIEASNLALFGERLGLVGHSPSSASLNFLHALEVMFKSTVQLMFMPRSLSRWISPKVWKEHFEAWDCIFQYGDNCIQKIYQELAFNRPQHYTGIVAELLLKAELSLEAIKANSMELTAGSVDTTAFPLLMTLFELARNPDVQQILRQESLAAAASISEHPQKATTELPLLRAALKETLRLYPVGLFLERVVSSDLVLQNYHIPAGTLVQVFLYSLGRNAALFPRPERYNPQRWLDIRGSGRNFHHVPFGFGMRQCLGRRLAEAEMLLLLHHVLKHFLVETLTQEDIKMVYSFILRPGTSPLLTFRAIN
From the text: (§1) Herein we identified the use of the G-402 cell line as a host cell to ectopically express (transiently or stably) enzymes of the CYP11 family. Specifically we developed stable G-402 cells expressing ectopically human CYP11B1, human CYP11B2, human CYP11A1, cynmolgus CYP11B1 or cynomolgus CYP11B2 enzyme activity. Importantly the identified cell line G-402 expresses co-factors (adrenodoxin and adrenodoxin reductase) important for the activity of the CYP11 family and no relevant enzyme activity of the CYP11 family (in comparison to H295R cells) was detected in these cells. Therefore the G-402 cell line is uniquely suited as a host cell for the ectopic expression of enzymes from the CYP11 family.
(§2) G-402 cells can be obtained from ATCC (CRL-1440) and were originally derived from a renal leiomyoblastoma.
(§3) The expression plasmids contains the ORF for either human/cyno CYP11B1 or CYP11B2 under the control of a suitable promoter (CMV-promoter) and a suitable resistance marker (neomycin). Using standard techniques the expression plasmid is transfected into G-402 cells and these cells are then selected for expressing the given resistance markers. Individual cell-clones are then selected and assessed for displaying the desired enzymatic activity using 11-Deoxycorticosterone (Cyp11B2) or 11-Deoxycortisol (Cyp11B1) as a substrate.
(§4) G-402 cells expressing CYP11 constructs were established as described above and maintained in McCoy's 5a Medium Modified, ATCC Catalog No. 30-2007 containing 10% FCS and 400 μg/ml G418 (Geneticin) at 37° C. under an atmosphere of 5% CO2/95% air. Cellular enzyme assays were performed in DMEM/F12 medium containing 2.5% charcoal treated FCS and appropriate concentration of substrate (0.3-10 uM 11-Deoxycorticosterone, 11-Deoxycortisol or Corticosterone). For assaying enzymatic activity, cells were plated onto 96 well plates and incubated for 16 h. An aliquot of the supernatant is then transferred and analyzed for the concentration of the expected product (Aldosterone for CYP11B2; Cortisol for CYP11B1). The concentrations of these steroids can be determined using HTRF assays from CisBio analyzing either Aldosterone or Cortisol.
(§5) Inhibition of the release of produced steroids can be used as a measure of the respective enzyme inhibition by test compounds added during the cellular enzyme assay. The dose dependent inhibition of enzymatic activity by a compound is calculated by means of plotting added inhibitor concentrations (x-axes) vs. measured steroid/product level (y-axes). The inhibition is then calculated by fitting the following 4-parameter sigmoidal function (Morgan-Mercer-Flodin (MMF) model) to the raw data points using the least squares method:
(§6) [formula] wherein, A is the maximum y value, B is the EC50 factor determined using XLFit, C is the minimum y value and D is the slope value.
(§7) EC50 values for compounds claimed herein were tested with the G402-based assay system described. Cyp11B2 enzyme activity was tested in presence of 1 μM Deoxycorticosterone and variable amounts of inhibitors; Cyp11B1 enzyme activity was tested in presence of 1 μM Deoxycortisol and variable amounts of inhibitors.

human CYP11B1 = human CYP11B1 (Homo sapiens (Human), UniProt P15538); experiment: G-402 cellular enzyme assay, human CYP11B1 (cortisol release, HTRF); format: cell-based; details: G-402 cells expressing human CYP11B1; 1 μM Deoxycortisol
human CYP11B1, sequence (P15538 25-503): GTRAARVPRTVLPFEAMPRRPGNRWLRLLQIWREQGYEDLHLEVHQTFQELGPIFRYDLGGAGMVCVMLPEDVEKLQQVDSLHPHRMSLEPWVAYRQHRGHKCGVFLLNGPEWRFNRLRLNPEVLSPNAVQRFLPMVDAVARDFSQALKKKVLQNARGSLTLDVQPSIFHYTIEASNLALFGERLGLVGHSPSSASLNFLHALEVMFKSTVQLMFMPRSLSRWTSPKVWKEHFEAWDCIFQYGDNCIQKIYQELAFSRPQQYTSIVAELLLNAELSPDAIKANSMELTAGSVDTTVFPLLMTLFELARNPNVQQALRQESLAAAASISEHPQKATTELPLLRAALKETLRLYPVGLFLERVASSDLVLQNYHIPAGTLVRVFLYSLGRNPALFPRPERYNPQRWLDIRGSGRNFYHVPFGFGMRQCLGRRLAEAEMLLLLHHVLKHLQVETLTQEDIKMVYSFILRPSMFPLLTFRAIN
From the text: as §1, §2, §3, §4, §5, §6, §7

[3] = tested on: patients with primary aldosteronism; details: cited from earlier work

Compound | EC50 (human CYP11B2) [nM] | EC50 (human CYP11B1) [nM] | further results
N#Cc1ccc(C2CCCc3cncn32)cc1 (centres unmarked) [FAD286] |  |  | plasma aldosterone [1]: reduced; cardiac and aortic medial hypertrophy [1]: attenuated; renal effects of angiotensin II and high salt (albuminuria, azotemia, renovascular hypertrophy, glomerular injury, PAI-1, osteopontin mRNA, tubulointerstitial fibrosis) [1]: prevented; blood pressure and cardiovascular function and structure [2]: improved; kidney function and morphology [2]: improve
CC(=O)S[C@@H]1CC2=CC(=O)CC[C@]2(C)[C@H]2CC[C@@]3(C)[C@@H](CC[C@@]34CCC(=O)O4)[C@H]12 [spironolactone] |  |  | plasma aldosterone [1]: increased; angiotensin II and salt-stimulated PAI-1 mRNA expression in the aorta and the heart [1]: enhanced; cardiac and aortic medial hypertrophy [1]: attenuated; renal effects of angiotensin II and high salt (albuminuria, azotemia, renovascular hypertrophy, glomerular injury, PAI-1, osteopontin mRNA, tubulointerstitial fibrosis) [1]: prevented
N#Cc1ccc(Oc2cn[nH]c2-c2cccc(F)c2F)cc1 [Example 29, 4-[[5-(2,3-Difluorophenyl)-1H-pyrazol-4-yl]oxy]benzonitrile] | 7.5 | 161 | 
Cn1cc(COc2ccccc2-c2[nH]ncc2Oc2ccc(C#N)cc2)cn1 [Example 80, 4-[[3-[2-[(1-Methylpyrazol-4-yl)methoxy]phenyl]-1H-pyrazol-4-yl]oxy]benzonitrile] | 0.3 | 6.9 | 
N#Cc1ccc(Oc2cn[nH]c2-c2cccc(O)c2F)cc1 [Example 84, 4-[[3-(2-Fluoro-3-hydroxyphenyl)-1H-pyrazol-4-yl]oxy]benzonitrile] | 0.4 | 17.3 | 
Cn1cc(C(=O)N2CCCC(c3[nH]ncc3Oc3ccc(C#N)cc3F)C2)cn1 (racemic) [Example 89, (rac)-3-Fluoro-4-[[5-[1-(1-methylpyrazole-4-carbonyl)piperidin-3-yl]-1H-pyrazol-4-yl]oxy]benzonitrile] | 231 | 7760 | 
FC(F)(F)c1ccc(-c2[nH]ncc2Oc2ccc(Cl)cc2)cc1 [Example 14, 4-(4-Chlorophenoxy)-5-[4-(trifluoromethyl)phenyl]-1H-pyrazole] | 2030 | 2670 | 
N#Cc1ccc(Oc2cn[nH]c2-c2cccc(F)c2Cl)cc1 [Example 35, 4-[[5-(2-Chloro-3-fluorophenyl)-1H-pyrazol-4-yl]oxy]benzonitrile] | 1.5 | 68.6 | 
N#Cc1ccc(Oc2cn[nH]c2-c2cccc(O)c2)cc1 [Example 48, 4-[[3-(3-Hydroxyphenyl)-1H-pyrazol-4-yl]oxy]benzonitrile] | 20.4 | 83.4 | 
N#Cc1ccc(Oc2cn[nH]c2-c2cccc(COc3cccnc3)c2)cc1 [Example 70, 4-[[3-[3-(Pyridin-3-yloxymethyl)phenyl]-1H-pyrazol-4-yl]oxy]benzonitrile] | 10.6 | 38.3 | 
Cn1nncc1COc1c(Cl)cccc1-c1[nH]ncc1Oc1ccc(C#N)cc1 [Example 90, 4-[[3-[3-Chloro-2-[(3-methyltriazol-4-yl)methoxy]phenyl]-1H-pyrazol-4-yl]oxy]benzonitrile] | 159 | 1580 | 
Cc1ccc(Oc2cn[nH]c2-c2ccccc2Cl)cn1 [Example 20, 5-[[5-(2-Chlorophenyl)-1H-pyrazol-4-yl]oxy]-2-methylpyridine] | 311 | 3390 | 
N#Cc1ccc(Oc2cn[nH]c2-c2cccc(Cl)c2)cc1 [Example 32, 4-[[5-(3-Chlorophenyl)-1H-pyrazol-4-yl]oxy]benzonitrile] | 45.8 | 542 | 
CS(=O)(=O)c1ccc(-c2[nH]ncc2Oc2ccc(C(F)(F)F)cc2)cc1 [Example 16, 5-(4-Methylsulfonylphenyl)-4-[4-(trifluoromethyl)phenoxy]-1H-pyrazole] | 84.5 | 1970 | 
N#Cc1ccc(Oc2cn[nH]c2-c2cccc(COc3cccc(Cl)n3)c2)cc1 [Example 73, 4-[[3-[3-[(6-Chloropyridin-2-yl)oxymethyl]phenyl]-1H-pyrazol-4-yl]oxy]benzonitrile] | 104 | 411 | 
N#Cc1ccc(Oc2cn[nH]c2-c2cccc(C(=O)N3CCOCC3)c2)cc1 [Example 45, 4-[[3-[3-(Morpholine-4-carbonyl)phenyl]-1H-pyrazol-4-yl]oxy]benzonitrile] | 397 | 2400 | 
COc1ccccc1CCc1[nH]ncc1Oc1ccc(C#N)cc1 [Example 60, 4-[[3-[2-(2-Methoxyphenyl)ethyl]-1H-pyrazol-4-yl]oxy]benzonitrile] | 54 | 1000 | 
N#Cc1ccc([C@H]2CCc3cncn32)c(F)c1 [LCI699] |  |  | blood pressure [3]: mildly decreased; hypokalemia [3]: corrected; circulating aldosterone levels ([3]; oral): significantly lower
N#Cc1ccc(Oc2cn[nH]c2-c2cccc(OCc3ccncc3)c2)cc1 [Example 54, 4-[[3-[3-(Pyridin-4-ylmethoxy)phenyl]-1H-pyrazol-4-yl]oxy]benzonitrile] | 3.5 | 46.5 | 
N#Cc1ccc(Oc2cn[nH]c2-c2cccc(OCc3ccncc3)c2F)cc1 [Example 85, 4-[[3-[2-Fluoro-3-(pyridin-4-ylmethoxy)phenyl]-1H-pyrazol-4-yl]oxy]benzonitrile] | 0.3 | 5.2 | 
Fc1cc(Cl)ccc1-c1[nH]ncc1Oc1ccc(C(F)(F)F)cc1 [Example 27, 5-(4-Chloro-2-fluorophenyl)-4-[4-(trifluoromethyl)phenoxy]-1H-pyrazole] | 575 | 3320 | 
CS(=O)(=O)c1ccc(-c2[nH]ncc2Oc2ccc(C#N)cc2)cc1 [Example 18, 4-[[5-(4-Methylsulfonylphenyl)-1H-pyrazol-4-yl]oxy]benzonitrile] | 23.9 | 462 | 
COC(=O)c1cccc(-c2[nH]ncc2Oc2ccc(C#N)cc2)c1 [Example 33, Methyl 3-[4-(4-cyanophenoxy)-1H-pyrazol-3-yl]benzoate] | 17.5 | 31.3 | 
Fc1cccc(-c2[nH]ncc2Oc2ccc(Cl)cc2)c1F [Example 1, 4-(4-Chlorophenoxy)-5-(2,3-difluorophenyl)-1H-pyrazole] | 29.8 | 1030 | 
N#Cc1ccc(Oc2cn[nH]c2-c2cccc(CN3CC(F)(CO)C3)c2)cc1 [Example 74, 4-[[3-[3-[[3-Fluoro-3-(hydroxymethyl)azetidin-1-yl]methyl]phenyl]-1H-pyrazol-4-yl]oxy]benzonitrile] | 19.7 | 36.2 | 
